From patent US5439940A, “Benz[e]indene derivatives” (priority 1992, dated 1995) come the findings set out here.

The term LD50 denotes the dose at which mortality reaches 50%. A higher LD50 goes with a less toxic substance.

For series [1], the system named is acetic acid writhing reactions. Kind of series: Analgesic effect (acetic acid writhing, Newbould). The following applies: Mus musculus, 1 h, read-out: Analgesic effect ID50. Format: in vivo, mouse (NMRI). The procedure: The characteristic "writhing reactions" were counted for a period of 5 minutes, starting from the fifth minute after challenge. […] Each group of animals consisted of at least 10 mice. […]

In series [2] the test system is carrageen-induced paw volume. Kind of series: Antiinflammatory effect (carrageen paw, Winter et al.). The following applies: po, read-out: Antiinflammatory effect ID30. Type of series: in vivo, rat (Wistar). The procedure:
The antiinflammatory effect was investigated on Wistar rats weighing 150-180 g according to the method of Winter et al. 0.1 ml of a 1 percent carrageen suspension was injected subcutaneously into the plantar region of one of the hind paws. The animals were fasted for 12 hours and received drinking water ad libitum. One hour before treatment with the test compound the rats were hydrated orally with 30 ml/kg of tap water. The test compounds and the vehicle were administered p.o. in a volume of 10 ml/kg, then 1 hour later carrageen was applied. The volume of the treated paw was measured by mercury-plethysmometer before and 3 hours after injection in such a way that displacement of the liquid arising from the volume alteration was indicated on a millimeter scale. […] A., Risley, E. A., Nuss, G. W.: Proc. Soc.

Series [3] deals with experimental coronary insufficiency. Kind of series: Antianginal effect (glanduitrine-induced coronary insufficiency, Nieschultz). The following applies: rat, glanduitrine 4 NE/kg i.v., T-wave; for inhibition in vivo at 2 mg/kg: Rat2, iv, read-out: Inhibition in a dose of 2 mg/kg. Type of series: in vivo, rat (male). The procedure: The test was carried out on male rats weighing 180-220 g. The animals were narcotized with the aid of chloralose-urethane. ECG was registered by means of needle electrodes in standard II output. Antianginal effect was tested according to the method of Nieschultz. Experimental coronary insufficiency was induced by administering glanduitrine (4 NE/kg i.v.).

The next series has as its system nicotine spasm. Description: Anticonvulsive activity: inhibition of nicotine spasm and lethality. The following applies: Mus musculus, 1 h; mice, oral, one hour before nicotine 1.4 mg/kg i.v. Format: in vivo. As for the experimental part: The inhibition of nicotine spasm and lethality was examined on mice according to the method of Stone. One hour after the oral treatment a dosage of 1.4 mg/kg of nicotine is injected intravenously, and the spasm developed as well as the lethality within 1 hour were recorded at both the test and control groups. [Stone, C. C., Mecklenburg, K. L., Torchiana, M. L.: Arch. Int. Pharmacodyn., 117, 419 (1958)].
The ED50 values were determined according to the method of Litchfield and Wilcoxon.

The nature of series [4]: Acute toxicity on mice (oral LD50). The following applies: mouse, in vivo, 7 days observation, maximal dose 1000 mg/kg. As for the experimental part:
Mice belonging to the NMRI strain (body weight 20-25 g, both male and female) were used, 6 to 10 animals for each dose. The test compound was administered orally in a volume of 20 ml/kg. The applied maximal dose was 1000 mg/kg. […] The mice were kept in a plastic cage at room temperature. The animals got tap water and standard mouse fodder ad libitum. The toxicity data were determined by the aid of the method of Litchfield and Wilcoxon [Litchfield, J. T., Wilcoxon, F. W.: J. Pharmacol. Exp. Ther., 96, 99 (1949)].

The subject of the next series is nervus ischiadicus. Description: Local analgesic effect (Truant d'Amato). Type of series: in vivo. Particulars: 0.2 ml injected around nervus ischiadicus. As for the experimental part:
The test was carried out according to the method of Truant d'Amato. 0.2 ml of test material was injected around the nervus ischiadicus in the middle of femur with a needle of 1 cm length. The criterion of analgesic effect was the lack of the motoric control of foot muscles. The duration of effect was registered and the 50 percentile effective concentration (EC50) was calculated on the basis of the dose-effect curve. Lidocain was used as reference substance Truant d'Amato, A. P., Wiedling, S.: Acta Chir. Scand., 116, 351 (1958)].

For series [5], the system named is learned conditioned avoidance reflex. Kind of series: Antipsychotic effect: inhibition of conditioned avoidance reflex (shuttle box). Type of series: in vivo, rat (male Wistar). The procedure:
The antipsychotic (neuroleptic) effect was measured by the inhibition of the learned conditioned avoidance reflex. The male Wistar rats used for the study were of 120-150 g bodyweight at the commencement of learning. […] In response to a suitable warning stimulus, in order to avoid the punishing (unconditioned) stimulus, animals within the box passed through the gate from one part over the other. The warning, i.e. conditioned stimulus (CS), a white light (1 Hz) blinking for 15 seconds, was applied at the place of the actual animal existence. The unconditioned stimulus (US), in form of 0.6 mA intensity electric shock, was randomly applied to the paw during the last 5 seconds of the conditioned stimulus. Animal's movement during the CS and US from one part of the box over the other, was defined as avoidance and escape responses, respectively. Both responses ceased the actual stimulus and stopped the trial. The time elapsed until the next trial (intertrial interval, ITI) was 15 seconds. While one experiment was carried out daily, an experiment consisted of 80 trials. Learning efficiency was expressed as percentage of the successful to the total avoidances. […] Dosing was carried out once a week, one hour before the measurement in the shuttle box.

For the next series, the system named is hexobarbital narcosis. Description: Hexobarbital narcosis potentiating effect on mice. Type of series: in vivo, mouse. As for the experimental part: The hexobarbital narcosis potentiating effect was examined on mice. Groups consisting of 6 animals were used for each dose. The animals were treated orally with the test compound, whereby sleeping was induced 1 hour later by administering a 40 mg/kg i.v. dose of hexobarbital both to the test and control groups. […] ED50 values were calculated from the thus-transformed data [Kaergaard Nielsen C. et al., Arch. Int. Pharmacodyn. 2, 170 (1967)].

The next series deals with shocks tolerated. Kind of series: Anxiolytic effect (Vogel et al.). Format: in vivo, rat (male Wistar). The procedure: The anxiolytic effect was tested by using the method of Vogel et al. Male Wistar rats of 160-180 g bodyweight were kept free of food and drinking water for 24 and 48 hours, respectively. Test and carrier substances were administered intraperitoneally two hours before testing. Animals within the experimental chamber were provided with drinking water through an inserted tube. After the animals' each twenty lapping for water the device emitted a 2 mA intensity electric shock through the drinking tube. During 5 minutes the shocks tolerated by the animals in order to quench their thirst were counted. The effect of treatment was expressed as the % increase of the tolerated shocks. The minimum effective dose (MED) was determined for each test compound [Voqel, J. R., Beer, B., Clody, D. E.: Psychopharmacologia (Berl.) 21, 1 (1971)].

The test system of a further series is catalepsy. Description: Catalepsy. Format: in vivo, rat (Wistar). Particulars: rat. As for the experimental part:
The extrapyramidal syndrome, the most important side effect limiting the application of the neuroleptic drugs in man, can be produced in experimental animals in the form of catalepsy. Our experiments in 150-160 g Wistar rats were performed according to Morpurgo. The catalepsy, appearing 60 minutes after dosing, was scored as follows. Both forelegs of each animal were put for 10 seconds onto a rubber stopper of 3 cm height, then for additional 10 seconds onto a same stopper of 9 cm height. […] The procedure was repeated in each 30 minutes during four hours, obtaining scores proportional to the degree of the catalepsy. Results were used to calculate the minimum effective dose [MED, the lowest dose resulting statistically significant alteration, c.f.: Morpurgo, C.: Arch. Int.

In the next series the test system is spontaneous motility. Kind of series: Spontaneous motility inhibiting activity (Dews equipment). Format: in vivo. The following applies: Mus musculus, 0.5 h; oral, beam interruptions within 30 minutes; read-out: Motility inhibiting activity ID50. As for the experimental part: The spontaneous motility inhibiting activity was examined according to the method of Borsy et al. Groups consisting of 3 mice each were treated orally with different doses of the compounds to be tested, then the test animals were placed in a Dews equipment. In this equipment the number of interruptions of infrared beam within 30 minutes was counted. […] [Borsy, J., Csanyi, E., Lazar, I.: Arch. Int.. Pharmacodyn. 124, 1 (1960)].

Setting [6] is: mice, 0.75% acetic acid one hour after treatment.
The mark [7] stands for this setting: rat, p.o., 1 hour before carrageen, paw volume 3 hours after.

The structures appear in SMILES notation. Like-named read-outs stand apart in the source and are kept apart here.

Take `CC(=O)Oc1ccccc1C(=O)O` [Acetylsalicylic acid, reference compound]: the ED50 in series [1] was 261 mg/kg. Besides, the ED30 in series [2] (Rattus norvegicus, 3 h) worked out at 62 mg/kg.

Consider `CC(C)N(CCON=C1CCc2c1ccc1ccccc21)C(C)C` [Example 4, 3-[2-(N-1-Methylethyl-2-propylamino)-ethoxyimino]-2,3-dihydro-1H-benz[e]indene], for which, in series [3], the inhibition in vivo at 2 mg/kg was 100%. For the same compound, the ED50 worked out at 0.19 mg/kg in [3] (iv) and 4 mg/kg with nicotine spasm. The LD50 at 168 h in series [4] worked out at 600 mg/kg. The “Local analgesic effect EC50” value in the series on nervus ischiadicus stood at 0.18%.

With `OC(CNC1CC1)CON=C1CCc2c1ccc1ccccc21` (stereo not drawn) [Example 17, 3-[3-(Cyclopropylamino)-2-hydroxypropoxyimino]-2,3-dihydro-1H-benz[e]indene], the ED50 is 14 mg/kg in series [1] (setting [6]); 26.3 mg/kg in [5] (1 h, rat, dosing one hour before measurement, read-out: Conditioned reflex ID50); 11 mg/kg in the series on hexobarbital narcosis (Mus musculus, oral, 1 hour before hexobarbital 40 mg/kg i.v., sleeping time >2.5 times control, read-out: ED50 hexobarbital narcosis potentiation); 6 mg/kg with spontaneous motility. Further, in series [5] (higher doses), the “character when administered in higher doses (in words)” value was “neuroleptic”. In addition, in [5] (rat), the “antipsychotic effect compared with reference substances (in words)” value is “superior to Thioridazine and inferior to Chlorpromazine”. Besides, the “tranquillo-sedative activity rank (in words)” value in the series with hexobarbital narcosis (compared within the structural group) is recorded as “the most active member in the structural group”. Also, the inhibition in vivo at 2 mg/kg in [3] is 50%. Besides, the ED30 in [2] (setting [7]) stood at 40 mg/kg. Further, the minimal effective dose with shocks tolerated (ip, 2 h, rat, intraperitoneal, two hours before testing, read-out: Anxiolytic effect MED) came out at 0.1 mg/kg. The “anxiolytic effect compared with Chlordiazepoxide and Meprobamate (in words)” value with shocks tolerated (rat) is recorded as “superior to the reference substances by orders of magnitude”. Further, the “character in smaller doses (in words)” value in the series on shocks tolerated (smaller doses) is “anxiolytic”. The 50% lethal dose (LD50) at 168 h in [4] stood at 660 mg/kg. The “Therapeutic index (Catalepsy MED / Conditioned Reflex ID50)” value in the series on catalepsy was 3.8. Moreover, in the series with catalepsy (scored from 60 minutes after dosing, four hours), the “Catalepsy MED” value was determined as 100 mg/kg.

Turning to `CC(=O)Nc1ccc(O)cc1` [Paracetamol, reference compound], the ED50 in series [1] (setting [6]) came to 421 mg/kg. In addition, the ED30 in series [2] (setting [7]) was 195 mg/kg.
